Results as given in patent publication US8283353B2, “Fused ring compound and use thereof” (Takeda Pharmaceutical Company Limited, priority 2009, dated 2012).

Key:
human AT1 receptor = target: T1, human AT1 receptor (Homo sapiens, UniProt P30556); assay: AT1 receptor antagonistic activity: [125I]-angiotensin II binding assay on human AT1 receptor-expressing CHO-K1 cellular membrane fraction; details: 22.5 pM [125I]-angiotensin II, 1 hr room temperature
T1 construct: expressed in transfected cells; membrane fraction
T1 sequence (P30556 1-359): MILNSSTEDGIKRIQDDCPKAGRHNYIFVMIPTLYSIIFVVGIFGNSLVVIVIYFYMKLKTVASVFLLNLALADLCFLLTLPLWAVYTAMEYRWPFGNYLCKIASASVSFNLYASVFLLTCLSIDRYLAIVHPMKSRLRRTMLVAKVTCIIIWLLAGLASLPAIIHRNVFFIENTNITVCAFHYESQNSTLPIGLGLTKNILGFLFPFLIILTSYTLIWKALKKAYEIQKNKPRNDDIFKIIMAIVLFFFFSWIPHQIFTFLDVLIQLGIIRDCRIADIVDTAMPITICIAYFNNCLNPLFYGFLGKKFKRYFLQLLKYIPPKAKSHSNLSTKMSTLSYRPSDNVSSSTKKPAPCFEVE
Protocol: CHO-K1 cell (RIKEN, Japan) capable of stable expression of human AT1 receptor was cultured, recovered, suspended in homogenize buffer (10 mM NaHCO3 (pH 7.4), 5 mM EDTA, 1× Complete EDTA free) [manufactured by Roche, Switzerland], and homogenized. The homogenate was centrifuged at low-speed (900×g, 10 min, 4° C.), and the supernatant was recovered and ultracentrifuged (90,000×g, 1 hr, 4° C.). The supernatant was discarded, and the pellets were resuspended in suspension buffer (50 mM Tris (pH 7.4), 1 mM EDTA, 1× Complete EDTA free).
(9 μg) in the presence of AT1 membrane and test compound in 100 μl, (total reaction volume) of reaction buffer (50 mM Tris (pH 7.4), 10 mM MgCl2 supplemented or not supplemented with 0.3 mg/mL fatty acid-free bovine serum albumin [manufactured by Wako Pure Chemical Industries, Ltd., Japan]). The reaction mixture was incubated in 96 well polypropylene plate for 1 hr at room temperature, and the reaction was quenched by rapid filtration (96 well cell harvester) through a GF/C filter treated with wash buffer (50 mM Tris (pH 7.4)). Subsequently, the filter was washed 5 times with 0.3 mL of ice-cooled wash buffer. […] Total binding was measured in the presence of 1% DMSO and nonspecific binding was measured in the presence of […] Candesartan.

human PPARγ = target: T2, human PPARγ (Homo sapiens, UniProt P37231); assay: PPARγ agonistic activity: luciferase reporter assay in PPARγ:RXRα:4ERPP/CHO-K1 cells; type: cell-based; details: CHO-K1, test compound 10^−6 M; luciferase activity of control compound X (1 μM) = 100%, non-administration group = 0%
T2 construct: expressed in transfected cells
T2 sequence (P37231 1-477 isoform P37231-2): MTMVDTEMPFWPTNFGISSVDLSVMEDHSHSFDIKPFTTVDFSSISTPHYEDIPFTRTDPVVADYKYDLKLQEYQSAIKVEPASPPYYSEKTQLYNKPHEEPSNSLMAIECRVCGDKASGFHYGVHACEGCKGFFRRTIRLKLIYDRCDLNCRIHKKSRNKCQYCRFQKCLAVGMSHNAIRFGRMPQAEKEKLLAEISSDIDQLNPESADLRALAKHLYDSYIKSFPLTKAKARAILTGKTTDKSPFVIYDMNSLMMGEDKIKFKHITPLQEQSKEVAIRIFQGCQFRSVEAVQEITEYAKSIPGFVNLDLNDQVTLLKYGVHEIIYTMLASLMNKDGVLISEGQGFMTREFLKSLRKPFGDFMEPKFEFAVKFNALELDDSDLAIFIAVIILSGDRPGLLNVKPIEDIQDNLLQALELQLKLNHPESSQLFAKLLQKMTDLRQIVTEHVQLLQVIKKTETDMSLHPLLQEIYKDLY
T2 sequence (P19793 1-462 partner): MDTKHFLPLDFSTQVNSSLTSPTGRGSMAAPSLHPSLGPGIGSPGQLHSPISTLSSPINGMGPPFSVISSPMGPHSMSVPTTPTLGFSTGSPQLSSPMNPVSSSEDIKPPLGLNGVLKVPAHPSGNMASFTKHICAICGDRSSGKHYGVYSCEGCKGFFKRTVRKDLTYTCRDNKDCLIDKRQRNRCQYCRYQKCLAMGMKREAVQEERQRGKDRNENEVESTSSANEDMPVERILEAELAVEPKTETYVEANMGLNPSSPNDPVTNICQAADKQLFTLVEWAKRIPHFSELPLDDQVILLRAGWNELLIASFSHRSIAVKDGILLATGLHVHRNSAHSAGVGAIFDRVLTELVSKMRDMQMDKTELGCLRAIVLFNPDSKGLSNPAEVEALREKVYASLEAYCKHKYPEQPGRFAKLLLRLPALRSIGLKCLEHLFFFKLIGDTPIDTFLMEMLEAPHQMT
Text: A CHO-K1 cell cultured in a 150 cm^2 cell culture flask [manufactured by Corning Costar Corporation, USA] comprising Ham's F12 medium [manufactured by INVITROGEN, USA] supplemented with 10% fetal bovine serum [manufactured by INVITROGEN, USA] was taken off by treating with 0.5 g/L trypsin-0.2 g/L EDTA (ethylenediamine tetraacetate) [manufactured by Life Technologies, Inc., USA], and then the cell was washed with PBS (Phosphate-buffered saline) [manufactured by INVITROGEN, USA], centrifuged (1000 rpm, 5 minutes) and suspended in PBS. Subsequently, DNA was introduced into the cell under the conditions shown below using GENE PULSER [manufactured by Bio-Rad Laboratories, USA].
Namely, to a cuvette having a 0.4 cm gap were added 8×10^6 cells and 10 μg of plasmid pVgRXR2-hPPARγ obtained in the above-mentioned (4) and 10 μg of reporter plasmid pGL3-4ERPP-TK neo obtained in the above-mentioned (3), which was subjected to electroporation at the voltage of 0.25 kV under the capacitance of […] Subsequently, the cell was transferred into a F12 medium comprising 10% fetal bovine serum and cultured for 24 hours, and then the cell was taken off again and centrifuged. Then, the pellet was suspended in Ham's F12 medium comprising 10% fetal bovine serum supplemented with 500 μg/ml of Geneticin [manufactured by INVITROGEN, USA] and 250 μg/ml of Zeocin [manufactured by INVITROGEN, USA]. The obtained suspension was diluted to the density of 10^4 cells/ml and inoculated in a 96-well plate [manufactured by Corning Costar Corporation, USA], which was cultured in a CO2 gas incubator at 37° C., whereby obtaining a Geneticin- and Zeocin-resistant transformant.
Subsequently, after the transformed cell line thus obtained was cultured in a 24-well plate [manufactured by Corning Costar Corporation, USA], a cell line in which expression of the luciferase was induced, i.e., PPARγ:RXRα:4ERPP/CHO-K1 cell was selected by the addition of 10 μM pioglitazone hydrochloride.
PPARγ:RXRα:4ERPP/CHO-K1 cells obtained in the above-mentioned (5) were cultured in F12 medium [manufactured by INVITROGEN, USA] containing 10% fetal bovine serum [manufactured by MOREGATE, Australia], seeded in a 96 well half-area white plate [manufactured by Corning Coster Corporation, USA] at 5×10^3 cells/well, and cultured in a CO2 incubator at 37° C. overnight.
Then, the medium was removed from the 96 well half-area white plate, hamF12 medium containing 0.1% fatty acid-free bovine serum albumin (BSA) (45 μl) and a test compound (5 μl) were added, and the mixture was cultured in the CO2 incubator at 37° C. for 1 day. After removing the medium, Picagene 7.5 [manufactured by Dai Nippon Inki, Japan] (20 μl) diluted 2-fold with HBSS (HANKS' BALANCED SALT SOLUTION) [manufactured by BIO […], USA] was added, and the mixture was stirred. Using 1420 ARVO Multilabel Counter [manufactured by PerkinElmer, USA], luciferase activity was measured. The percentage (%) was calculated from the luciferase activity of the test compound when the luciferase activity of the control compound (compound X: 5-[3-(4-{[2-(2-furyl)-5-methyl-1,3-oxazol-4-yl]methoxy}-3-methoxyphenyl)propyl]-1,3-oxazolidine-2,4-dione) (1 μM) was taken as 100% and the luciferase activity of the test compound non-administration group was taken as 0%.

| Compound | IC50 (human AT1 receptor) | activation at 1 µM (human PPARγ) |
| --- | --- | --- |
| CCCc1c(Cc2ccc(-c3ccccc3-c3noc(=O)[nH]3)cc2)c(=O)n([C@H]2CC[C@H](OCC(O)C(F)(F)F)CC2)c2ccnn12 (relative stereo) [Example 428, 6-{[2′-(5-oxo-4,5-dihydro-1,2,4-oxadiazol-3-yl)biphenyl-4-yl]methyl}-7-propyl-4-[trans-4-(3,3,3-trifluoro-2-hydroxypropoxy)cyclohexyl]pyrazolo[1,5-a]pyrimidin-5(4H)-one] | 1.9 nM | 27% |
| CCCCc1c(Cc2ccc(-c3ccccc3-c3noc(=O)[nH]3)cc2)c(=O)n([C@H]2CC[C@H](OCC(C)O)CC2)c2ccnn12 (relative stereo) [Example 436, 7-butyl-4-[trans-4-(2-hydroxypropoxy)cyclohexyl]-6-{[2′-(5-oxo-4,5-dihydro-1,2,4-oxadiazol-3-yl)biphenyl-4-yl]methyl}pyrazolo[1,5-a]pyrimidin-5(4H)-one] | 1.8 nM | 32% |
| CCCc1c(Cc2ccc(-c3ccccc3-c3noc(=O)[nH]3)cc2F)c(=O)n([C@H]2CC[C@H](OCC(C)O)CC2)c2ccnn12 (relative stereo) [Example 437, 6-{[3-fluoro-2′-(5-oxo-4,5-dihydro-1,2,4-oxadiazol-3-yl)biphenyl-4-yl]methyl}-4-[trans-4-(2-hydroxypropoxy)cyclohexyl]-7-propylpyrazolo[1,5-a]pyrimidin-5(4H)-one] | 1.6 nM | 30% |
| CCCc1c(Cc2ccc(-c3ccccc3-c3noc(=O)[nH]3)cc2)c(=O)n([C@H]2CC[C@H](OC(C)C(C)(C)O)CC2)c2ncnn12 (single isomer, unassigned) [Example 319, 4-[trans-4-(2-hydroxy-1,2-dimethylpropoxy)cyclohexyl]-6-{[2′-(5-oxo-4,5-dihydro-1,2,4-oxadiazol-3-yl)biphenyl-4-yl]methyl}-7-propyl[1,2,4]triazolo[1,5-a]pyrimidin-5(4H)-one (retention time: long)] | 2 nM | 16% |
| CCCc1c(Cc2ccc(-c3ccccc3-c3noc(=O)[nH]3)cc2)c(=O)n(CC(C)(C)C)c2nc(C)nn12 [Example 2, 4-(2,2-dimethylpropyl)-2-methyl-6-{[2′-(5-oxo-4,5-dihydro-1,2,4-oxadiazol-3-yl)biphenyl-4-yl]methyl}-7-propyl[1,2,4]triazolo[1,5-a]pyrimidin-5(4H)-one] | 1.3 nM | 18% |
| CCCc1c(Cc2ccc(-c3ccccc3-c3noc(=O)[nH]3)cc2)c(=O)n(Cc2ccc(F)cc2)c2ncnn12 [Example 4, 4-(4-fluorobenzyl)-6-{[2′-(5-oxo-4,5-dihydro-1,2,4-oxadiazol-3-yl)biphenyl-4-yl]methyl}-7-propyl[1,2,4]triazolo[1,5-a]pyrimidin-5(4H)-one] | 2.6 nM | 39% |
| CCCc1c(Cc2ccc(-c3ccccc3-c3noc(=O)[nH]3)cc2)c(=O)n(Cc2ccc(F)cc2)c2nc(C)nn12 [Example 5, 4-(4-fluorobenzyl)-2-methyl-6-{[2′-(5-oxo-4,5-dihydro-1,2,4-oxadiazol-3-yl)biphenyl-4-yl]methyl}-7-propyl[1,2,4]triazolo[1,5-a]pyrimidin-5(4H)-one] | 1.7 nM | 18% |
| CCCc1c(Cc2ccc(-c3ccccc3-c3noc(=O)[nH]3)cc2)c(=O)n(Cc2ccc(CC)nc2)c2nc(C)nn12 [Example 7, 4-[(6-ethylpyridin-3-yl)methyl]-2-methyl-6-{[2′-(5-oxo-4,5-dihydro-1,2,4-oxadiazol-3-yl)biphenyl-4-yl]methyl}-7-propyl[1,2,4]triazolo[1,5-a]pyrimidin-5(4H)-one] | 2.4 nM | 26% |
| CCCc1c(Cc2ccc(-c3ccccc3-c3noc(=O)[nH]3)cc2)c(=O)n(CC(C)(C)C)c2ncnn12 [Example 9, 4-(2,2-dimethylpropyl)-6-{[2′-(5-oxo-4,5-dihydro-1,2,4-oxadiazol-3-yl)biphenyl-4-yl]methyl}-7-propyl[1,2,4]triazolo[1,5-a]pyrimidin-5(4H)-one] | 2.1 nM | 17% |
| CCCc1c(Cc2ccc(-c3ccccc3-c3noc(=O)[nH]3)cc2)c(=O)n(CC(=O)C(C)(C)C)c2ncnn12 [Example 10, 4-(3,3-dimethyl-2-oxobutyl)-6-{[2′-(5-oxo-4,5-dihydro-1,2,4-oxadiazol-3-yl)biphenyl-4-yl]methyl}-7-propyl[1,2,4]triazolo[1,5-a]pyrimidin-5(4H)-one] | 1.8 nM | 18% |
| CCCCc1c(Cc2ccc(-c3ccccc3-c3noc(=O)[nH]3)cc2)c(=O)n(C2CCOC(C)C2)c2ncnn12 (stereo not drawn) [Example 161, 7-butyl-4-(2-methyltetrahydro-2H-pyran-4-yl)-6-{[2′-(5-oxo-4,5-dihydro-1,2,4-oxadiazol-3-yl)biphenyl-4-yl]methyl}[1,2,4]triazolo[1,5-a]pyrimidin-5(4H)-one] | 1.2 nM |  |
